Test results as given in publication PMC7760315 (Biomolecules, 2020).
Where “and” joins values, the source holds several entries; their conditions need not be identical. Equal entries are not always repeated. Where two headings read alike, the source gives them in different places.

Tests used:
[1] = target: T1, GlyRα1/GlyT1 (Homo sapiens, UniProt P48067); experiment: Two-electrode voltage clamp, oocytes co-expressing GlyRα1/GlyT1; type: cell-based; settings: 1 μM ALX-5407; 1 mM Na+ buffer
T1 construct: expressed in transfected cells; host or cells: Xenopus laevis oocytes (cRNA co-injection)
T1 sequence (P48067 1-652 isoform P48067-3): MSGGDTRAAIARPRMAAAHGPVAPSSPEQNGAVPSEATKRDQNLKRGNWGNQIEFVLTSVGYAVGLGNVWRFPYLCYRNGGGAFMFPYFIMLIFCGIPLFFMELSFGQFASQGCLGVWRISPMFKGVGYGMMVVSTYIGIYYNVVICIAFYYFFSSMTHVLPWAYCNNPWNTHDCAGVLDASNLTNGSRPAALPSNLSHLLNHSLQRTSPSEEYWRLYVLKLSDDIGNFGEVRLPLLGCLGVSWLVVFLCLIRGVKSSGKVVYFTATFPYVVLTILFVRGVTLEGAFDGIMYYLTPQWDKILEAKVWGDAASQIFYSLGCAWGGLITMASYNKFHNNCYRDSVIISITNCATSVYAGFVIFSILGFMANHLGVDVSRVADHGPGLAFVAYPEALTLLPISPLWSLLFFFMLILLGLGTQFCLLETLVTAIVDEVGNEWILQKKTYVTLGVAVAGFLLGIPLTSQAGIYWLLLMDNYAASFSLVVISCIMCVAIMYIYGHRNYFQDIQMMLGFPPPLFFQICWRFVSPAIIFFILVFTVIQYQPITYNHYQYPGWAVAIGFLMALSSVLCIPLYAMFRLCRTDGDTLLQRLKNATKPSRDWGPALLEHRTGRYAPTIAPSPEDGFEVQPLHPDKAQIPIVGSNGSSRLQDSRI
Source text: (§1) Human GlyT1b and GlyT2a WT cDNA were subcloned into the plasmid oocyte transcription vector (pOTV) and human GlyRα1, GlyRα3 and GlyRβ into pGEMHE. GlyR cDNA pGEMHE vectors were provided by Mary Collins at the University of Sydney (Sydney, Australia). Single point mutations were introduced into GlyRα1 using the Q5 site-directed mutagenesis kit (New England Biolabs (Genesearch), Arundel, Australia) with oligonucleotide primers (Merck, Sydney, Australia) containing the desired mutations. The amplified cDNA/pOTV or cDNA/pGEMHE product was then transformed in E. coli cells, and subsequently purified using the PureLink Quick Plasmid Miniprep Kit (Invitrogen by Life Technologies, Löhne, Germany), and sequenced by the Australian Genome Research Facility (Sydney, Australia). The purified plasmid DNA was linearised via the restriction enzyme, SpeI (New England Biolabs (Genesearch), Arundel, Australia) for GlyT1b and GlyT2a (henceforth referred to as GlyT1 and GlyT2 respectively) and NheI (New England Biolabs (Genesearch)) for GlyRα1, GlyRα3 and GlyRβ. Complementary RNAs were synthesised using the mMESAGE mMACHINE T7 kit (Ambion, Austin, TX, USA).
(§2) All work involving the use of animals was performed in accordance with the Australian Code of Practice for the Care and Use of Animals for Scientific Purposes and approved by the University of Sydney Animal Ethics Committee (Approval numbers 2016/970 and 2020/1704). […] The oocytes were then stored in frog Ringer’s solution (96 mM NaCl, 2 mM KCl, 1 mM MgCl2, 1.8 mM CaCl2, 5 mM HEPES, pH 7.5) which was supplemented with 2.5 mM sodium pyruvate, 0.5 mM theophylline, 50 μg/mL gentamicin and […] tetracycline. The oocytes were stored at 18 °C for 3–5 days, until transporter and receptor expression were adequate for measurement using the two-electrode voltage clamp technique.
(§3) GlyT1, GlyT2, GlyRα1, GlyRα3, GlyRα1β and GlyRα3β are electrogenic, allowing activation to be measured via the two-electrode voltage clamp technique. Oocytes were voltage clamped at −60 mV, and whole-cell currents generated by the substrate were recorded with a Geneclamp 500 amplifier (Axon Instruments, Foster City, CA, USA), digitised by a Powerlab 2/20 chart recorder (ADInstruments, Sydney, Australia). LabChart version 8 software (ADInstruments, Sydney, Australia) was used to visualise and process current traces. Recordings were performed in frog Ringer’s solution, except for low Na^+ experiments where Na^+ was replaced with choline. Oocytes were placed in an oval-shaped bath with a volume of 0.3 mL, with laminar flow around the oocyte at a rate of 12 mL min^−1 under gravity feed.
(§4) Varying concentrations of substrate or agonist were applied to cells in ND96.
(§5) Flow of the solution was stopped until the current plateaued, by manually closing a three-way valve on one end of the bath such that the solution in the bath was static and is referred to henceforth as ‘stop-flow’.

[2] = target: T2, GlyRα1/GlyT1 (Homo sapiens, UniProt P23415); experiment: as above; type: cell-based; settings: 1 µM inhibitor; fast-flow
T2 construct: expressed in transfected cells; host or cells: Xenopus laevis oocytes (cRNA co-injection)
T2 sequence (P23415 29-457): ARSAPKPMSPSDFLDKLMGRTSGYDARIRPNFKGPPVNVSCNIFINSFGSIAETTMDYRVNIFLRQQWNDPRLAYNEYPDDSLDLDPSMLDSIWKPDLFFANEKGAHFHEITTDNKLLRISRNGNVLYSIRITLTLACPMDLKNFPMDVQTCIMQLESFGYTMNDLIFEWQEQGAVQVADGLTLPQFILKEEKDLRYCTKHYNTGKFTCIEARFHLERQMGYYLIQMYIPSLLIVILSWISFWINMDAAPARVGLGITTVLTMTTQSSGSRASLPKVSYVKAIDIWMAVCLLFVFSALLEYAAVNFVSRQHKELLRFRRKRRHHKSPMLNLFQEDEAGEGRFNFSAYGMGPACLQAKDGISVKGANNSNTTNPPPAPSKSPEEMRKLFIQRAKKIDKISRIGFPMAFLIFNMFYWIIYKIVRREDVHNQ
Source text: as §1, §2, §3, §4, §5

[3] = system: GlyT1; settings: cited from earlier work
[4] = target: T3, GlyRα1 (Homo sapiens, UniProt P23415); experiment: Two-electrode voltage clamp, Xenopus laevis oocytes expressing GlyRα1 alone; type: cell-based; settings: 1 µM lipid; fast-flow
T3 construct: expressed in transfected cells; host or cells: Xenopus laevis oocytes (cRNA injection)
T3 sequence (P23415 29-457): T2 sequence (P23415 29-457)
Source text: as §1, §2, §3, §4, §5

[5] = system: GlyRα1; settings: cited from earlier work; for GlyRα1 Potentiation at EC5 (%): % stimulation of glycine EC5 caused by 1 µM lipid
[6] = system: GlyT2; settings: cited from earlier work; for GlyT2 Activity: % Inhibition (1 µM): 1 µM lipid, inhibition of glycine transport; for IC50: inhibition of glycine transport by GlyT2; for GlyT2 Activity: Max inhibition (%): maximal level of inhibition observed

Row | SMILES | stopped flow increase in current amplitude (reverse glycine transport / efflux) [1] | nH of glycine dose-response in the presence of GlyT inhibitor [2] [ns] | IC50 [3] [nM] | nH of glycine dose-response in the presence of lipid [4] [ns] | GlyRα1 Potentiation at EC5 (%) [5] | GlyT2 Activity: % Inhibition (1 µM) [6] [%] | IC50 [6] [nM] | GlyT2 Activity: Max inhibition (%) [6] [%] | GlyRα1 Potentiation at EC5 (%) ([5]; listed as 18-cis-ω9-glycine) | effect on Imax of GlyRα1 ([5]; dose-dependent) | effect on glycine EC50 of GlyRα1 ([5]; dose-dependent) | GlyT2 Activity: % Inhibition (1 µM) ([6]; listed as 18-cis-ω9-glycine) [%]
1 | CN(CC[C@@H](Oc1ccc(-c2ccccc2)cc1)c1ccc(F)cc1)CC(=O)O [ALX-5407] | prevents | 2.0 ± 0.2 | 3 | – | – | – | – | – | – | – | – | –
2 | CCCCCC/C=C\CCCCCCCCCC(=O)NCC(=O)O [C18-cis-ω7-glycine] | – | – | – | 2.8 ± 0.3 | 184.7 ± 41.3 (5) % | 10.5 ± 0.02 | > 10000 | – | – | – | – | –
3 | CCCCCCCCC=CCCCCCCCC(=O)NC(CCSC)C(=O)O [C18-cis-ω9-L-methionine] | – | – | – | 2.2 ± 0.3 | 2.2 ± 4.2% and 2.2 ± 4.2 (6) % | 84.9 ± 0.07 | 29.2 | 91.2 | – | – | – | –
4 | CCCCCCCC/C=C\CCCCCCCC(=O)NCC(=O)O [C18-cis-ω9-glycine] | – | – | – | 2.4 ± 0.2 | 84.7 ± 14.0% | 50.1 ± 0.06 | 31 | 95.0 | 84.7 ± 14.0 (8) % | increases | decreases | 89.6 ± 0.01
